Source: USRE39591E1, “6-O-substituted ketolides having antibacterial activity” (Abbott Laboratories, priority 1996, dated 2007)
Values after ≈ are worked out from the molar mass of the structure shown.

Test system: up to 32 different microorganisms
Assay: in vitro antibacterial activity (MIC), agar dilution on Brain Heart Infusion (BHI) agar with Steers replicator
Assay type: cell-based
Details: unit assumed
Protocol: Representative compounds of the present invention were assayed in vitro for antibacterial activity as follows: Twelve petri dishes containing successive aqueous dilutions of the test compound mixed with 10 mL of sterilized Brain Heart Infusion (BHI) agar (Difco 0148-01-5) were prepared. Each plate was inoculated with 1:100 (or 1:10 for slow-growing strains, such as Micrococcus and Streptococcus) dilutions of up to 32 different microorganisms, using a Steers replicator block. The inoculated plates were incubated at 35°-37° C. for 20 to 24 hours. In addition, a control plate, using BHI agar containing no test compound, was prepared and incubated at the beginning and end of each test.
An additional plate containing a compound having known susceptibility patterns for the organisms being tested and belonging to the same antibiotic class as the test compound was also prepared and incubated as a further control, as well as to provide test-to-test comparability. Erythromycin A was used for this purpose.
After incubation, each plate was visually inspected. The minimum inhibitory concentration (MIC) was defined as the lowest concentration of drug yielding no growth, a slight haze, or sparsely isolated colonies on the inoculum spot as compared to the growth control.

SMILES: CCC1OC(=O)C(C)C(=O)C(C)C(OC2OC(C)CC(N(C)C)C2O)C(C)(OCC=Cc2cnc3cccc([N+](=O)[O-])c3c2)CC(C)C(=O)C(C)C2NC(=O)OC12C (stereo not shown) [Example 210, R is —CH2CH═CH-(5-nitro-3-quinolyl)]
- MIC (organism code AA): 0.1 µg/mL (≈ 0.123 µM)
- MIC (organism code CC): > 100 µg/mL
- MIC (organism code DD): 0.1 µg/mL (≈ 0.123 µM)
- MIC (organism code EE): 0.1 µg/mL (≈ 0.123 µM)
- MIC (organism code FF): 0.1 µg/mL (≈ 0.123 µM)
- MIC (organism code GG): > 100 µg/mL
- MIC (organism code HH): 0.1 µg/mL (≈ 0.123 µM)
- MIC (organism code II): 0.02 µg/mL (≈ 0.0247 µM)
- MIC (organism code JJ): ≤ 0.005 µg/mL
- MIC (organism code KK): ≤ 0.005 µg/mL
- MIC (organism code LL): 0.01 µg/mL (≈ 0.0123 µM)
- MIC (organism code MM): 0.78 µg/mL (≈ 0.962 µM)
- MIC (organism code NN): 0.2 µg/mL (≈ 0.247 µM)
- MIC (organism code OO): 0.02 µg/mL (≈ 0.0247 µM)
- MIC (organism code PP): 0.2 µg/mL (≈ 0.247 µM)
- MIC (organism code QQ): 50 µg/mL (≈ 61.7 µM)
- MIC (organism code RR): 0.2 µg/mL (≈ 0.247 µM)
- MIC (organism code SS): > 100 µg/mL
- MIC (organism code TT): > 100 µg/mL
- MIC (organism code UU): 0.78 µg/mL (≈ 0.962 µM)
- MIC (organism code VV): 0.02 µg/mL (≈ 0.0247 µM)
- MIC (organism code WW): 3 µg/mL (≈ 3.7 µM)
- MIC (organism code XX): 0.015 µg/mL (≈ 0.0185 µM)
- MIC (organism code YY): ≤ 0.004 µg/mL
- MIC (organism code ZZ): 4 µg/mL (≈ 4.93 µM)
- MIC (organism code ZZA): 0.25 µg/mL (≈ 0.308 µM)

SMILES: CCC1OC(=O)C(C)C(=O)C(C)C(OC2OC(C)CC(N(C)C)C2O)C(C)(OCC=Cc2cnc3ccc(N)cc3c2)CC(C)C(=O)C(C)C2NC(=O)OC12C (stereo not shown) [Example 201, R is —CH2CH═CH-(6-amino-3-quinolyl)]
- MIC (organism code AA): 0.1 µg/mL (≈ 0.128 µM)
- MIC (organism code BB): 0.1 µg/mL (≈ 0.128 µM)
- MIC (organism code CC): > 100 µg/mL
- MIC (organism code DD): 0.1 µg/mL (≈ 0.128 µM)
- MIC (organism code EE): 0.1 µg/mL (≈ 0.128 µM)
- MIC (organism code FF): 0.1 µg/mL (≈ 0.128 µM)
- MIC (organism code GG): > 100 µg/mL
- MIC (organism code HH): 0.01 µg/mL (≈ 0.0128 µM)
- MIC (organism code II): 0.01 µg/mL (≈ 0.0128 µM)
- MIC (organism code JJ): 0.01 µg/mL (≈ 0.0128 µM)
- MIC (organism code KK): 0.01 µg/mL (≈ 0.0128 µM)
- MIC (organism code LL): 0.01 µg/mL (≈ 0.0128 µM)
- MIC (organism code MM): 1.56 µg/mL (≈ 2 µM)
- MIC (organism code NN): 0.2 µg/mL (≈ 0.256 µM)
- MIC (organism code OO): 0.05 µg/mL (≈ 0.064 µM)
- MIC (organism code PP): 0.1 µg/mL (≈ 0.128 µM)
- MIC (organism code QQ): 50 µg/mL (≈ 64 µM)
- MIC (organism code RR): 0.1 µg/mL (≈ 0.128 µM)
- MIC (organism code SS): 50 µg/mL (≈ 64 µM)
- MIC (organism code TT): > 100 µg/mL
- MIC (organism code UU): 6.2 µg/mL (≈ 7.94 µM)
- MIC (organism code VV): 0.2 µg/mL (≈ 0.256 µM)
- MIC (organism code WW): 2 µg/mL (≈ 2.56 µM)
- MIC (organism code XX): 0.03 µg/mL (≈ 0.0384 µM)
- MIC (organism code YY): 0.03 µg/mL (≈ 0.0384 µM)
- MIC (organism code ZZ): 16 µg/mL (≈ 20.5 µM)
- MIC (organism code ZZA): 1 µg/mL (≈ 1.28 µM)

SMILES: CCC1OC(=O)C(C)C(=O)C(C)C(OC2OC(C)CC(N(C)C)C2O)C(C)(OCC=Cc2ccc3ccccc3c2)CC(C)C(=O)C(C)C2NC(=O)OC12C (stereo not shown) [Example 186, R is —CH2CH═CH-(2-naphthyl)]
- MIC (Candida albicans CCH 442 (code TT)): > 100 µg/mL
- MIC (Enterococcus faecism ATCC 8043 (code II)): 0.05 µg/mL (≈ 0.0654 µM)
- MIC (Escherichia coli DC-2 (code SS)): > 100 µg/mL
- MIC (Escherichia coli JUHL (code QQ)): > 100 µg/mL
- MIC (Escherichia coli SS (code RR)): 0.39 µg/mL (≈ 0.51 µM)
- MIC (Haemophilis influenzae DILL AMP R (code WW)): 16 µg/mL (≈ 20.9 µM)
- MIC (Micrococcus luteus ATCC 4698 (code PP)): 0.1 µg/mL (≈ 0.131 µM)
- MIC (Micrococcus luteus ATCC 9341 (code OO)): < 0.005 µg/mL
- MIC (Mycobacterium smegmatis ATCC 114 (code UU)): 0.2 µg/mL (≈ 0.261 µM)
- MIC (Nocardia Asteroides ATCC9970 (code VV)): 0.1 µg/mL (≈ 0.131 µM)
- MIC (Staphylococcus aureus 1775 (code GG)): > 100 µg/mL
- MIC (Staphylococcus aureus A5177 (code BB)): 0.01 µg/mL (≈ 0.0131 µM)
- MIC (Staphylococcus aureus A-5278 (code CC)): > 100 µg/mL
- MIC (Staphylococcus aureus ATCC 6538P (code AA)): 0.1 µg/mL (≈ 0.131 µM)
- MIC (Staphylococcus aureus CMX 553 (code FF)): 0.01 µg/mL (≈ 0.0131 µM)
- MIC (Staphylococcus aureus CMX 642A (code DD)): 0.1 µg/mL (≈ 0.131 µM)
- MIC (Staphylococcus aureus NCTC10649M (code EE)): 0.1 µg/mL (≈ 0.131 µM)
- MIC (Staphylococcus epidermidis 3519 (code HH)): 0.1 µg/mL (≈ 0.131 µM)
- MIC (Streptococcus Pneumonia 5649 (code ZZA)): 1 µg/mL (≈ 1.31 µM)
- MIC (Streptococcus Pneumonia 5979 (code ZZ)): > 128 µg/mL
- MIC (Streptococcus Pneumonia ATCC6303 (code XX)): 0.03 µg/mL (≈ 0.0392 µM)
- MIC (Streptococcus Pneumonia GYR 1171 (code YY)): 0.015 µg/mL (≈ 0.0196 µM)
- MIC (Streptococcus agalactiae CMX 508 (code KK)): 0.01 µg/mL (≈ 0.0131 µM)
- MIC (Streptococcus bovis A-5169 (code JJ)): ≤ 0.005 µg/mL
- MIC (Streptococcus pyogenes 930 (code MM)): 3.1 µg/mL (≈ 4.05 µM)
- MIC (Streptococcus pyogenes EES61 (code LL)): 0.01 µg/mL (≈ 0.0131 µM)
- MIC (Streptococcus pyogenes PIU 2548 (code NN)): 0.1 µg/mL (≈ 0.131 µM)

SMILES: CC[C@H]1OC(=O)[C@H](C)C(=O)[C@H](C)[C@@H](O[C@@H]2O[C@H](C)C[C@H](N(C)C)[C@H]2O)[C@@](C)(OCC#Cc2ccc3nc(C)ccc3c2)C[C@@H](C)C(=O)[C@H](C)[C@H]2NC(=O)O[C@@]21C [Example 255, Compound of Formula (IX): L is CO, T is NH, R is —CH2—C≡C-(2-methyl-6-quinolyl)]
- MIC (organism code AA): 0.1 µg/mL
- MIC (organism code BB): 0.2 µg/mL
- MIC (organism code CC): > 100 µg/mL
- MIC (organism code DD): 0.2 µg/mL
- MIC (organism code EE): 0.2 µg/mL
- MIC (organism code FF): 0.2 µg/mL
- MIC (organism code GG): > 100 µg/mL
- MIC (organism code HH): 0.1 µg/mL
- MIC (organism code II): 0.05 µg/mL
- MIC (organism code JJ): 0.02 µg/mL
- MIC (organism code KK): 0.02 µg/mL
- MIC (organism code LL): 0.02 µg/mL
- MIC (organism code MM): 50 µg/mL
- MIC (organism code NN): 0.2 µg/mL
- MIC (organism code OO): 0.05 µg/mL
- MIC (organism code PP): 0.2 µg/mL
- MIC (organism code QQ): 100 µg/mL
- MIC (organism code RR): 0.3 µg/mL
- MIC (organism code SS): > 100 µg/mL
- MIC (organism code TT): > 100 µg/mL
- MIC (organism code UU): 3.1 µg/mL
- MIC (organism code VV): 0.05 µg/mL
- MIC (organism code XX): 0.03 µg/mL
- MIC (organism code YY): 0.03 µg/mL
- MIC (organism code ZZ): 16 µg/mL
- MIC (organism code ZZA): 0.25 µg/mL
